# Measured values: PMC12073402, “A Selective MAP3K1 Inhibitor Facilitates Discovery of NPM1 as a Member of the Network” (Molecules, 2025)
# Tested on: NPM1 T199 phosphorylation
# Assay: Western blot of NPM1 T199 phosphorylation in PANC-1 cells
# Type: cell-based
# Details: 2 h
# From the text: We further investigated changes in NPM1 phosphorylation in our dataset. Of the NPM1 phosphorylation sites quantified, four sites had significant dose-dependent decreases upon 51-106 treatment: S137, T199, S222, and S227. Only one of these phosphorylation sites, T199, has a commercially available antibody. Importantly, T199 phosphorylation plays an essential role in NPM1 function, as it is required for localization of NPM1 to sites of DNA double-stranded breaks, where it colocalizes with other DNA repair proteins such as γH2AX and RAD51 [38].
# Cells were washed with cold 1× PBS and lysed in Radioimmunoprecipitation assay (RIPA) buffer (Cat# 89901; Thermo Fisher Scientific), sodium orthovanadate (Na3VO4) (Cat# 567540-5GM; Sigma-Aldrich; St. Louis, MO, USA), sodium fluoride (NaF) (Cat# 201154-5G, >99% purity; Sigma-Aldrich), β-glycerophosphate (Cat# G9422-10G; Sigma-Aldrich), and 1 mM phenylmethylsulfonyl fluoride (Cat# 10837091001; Sigma Aldrich). The samples were incubated on ice for 30 min, vortexed at 10 min intervals, and centrifuged at 14,000× g for 10 min at 4 °C. The supernatant was collected, and protein was quantified using the BCA Protein Assay kit (Cat# 23225; Thermo Fisher Scientific). […]
structure (smiles),measurement,value
"Cn1cc(-c2cnc3ccc(NC(=O)Nc4ccc(F)c(C(F)(F)F)c4)cc3n2)cn1 [51-106, 1-(4-Fluoro-3-(trifluoromethyl)phenyl)-3-(3-(1-methyl-1H-pyrazol-4-yl)quinoxalin-6-yl)urea]",NPM1 T199 phosphorylation (Western blot),Decreased phosphorylation in NPM1 T199
